Laboratory results published in PMC3355305, “Localized Dimerization and Nucleoid Binding Drive Gradient Formation by the Bacterial Cell Division Inhibitor MipZ” (Molecular Cell, 2012).

Columns and labels:
MipZ [1] = test: Transient kinetic (stopped-flow) analysis of mant nucleotide binding to wild-type MipZ; parameters: species or system Caulobacter crescentus; details: for kon: 30°C, buffer P; for Kd: calculated KD = koff/kon; for koff: displacement by excess unlabeled nucleotide
From the text: (§1) Once released from the dimeric complex, MipZ monomers must undergo nucleotide exchange to enter the next reaction cycle (Figure 2A). To clarify the requirements for the exchange reaction, we studied the nucleotide binding kinetics of MipZ by monitoring its interaction with methylanthraniloyl (mant)-labeled ADP and ATP analogs (Figure S3). Since the mant group blocks dimer formation, our measurements specifically focused on the initial nucleotide-binding step without interference from subsequent reactions.
(§2) Figure S3. Steady-state and transient kinetic analysis of nucleotide binding to MipZ, Related to Table 2.
(§3) (A) Fluorescence emission spectra of mant-ATP. MipZ (1 µM) and/or mant-ATP (60 µM) were mixed in buffer BC containing no (+ Mg2+) or 10 mM (- Mg2+) EDTA. Emission spectra were recorded in a PC1 photon-counting spectrofluorimeter (ISS) using fluorescence resonance energy transfer (FRET) and an excitation wavelength of 290 nm.
(§4) (B) Association of MipZ with mant nucleotides.
(§5) (data not shown), necessitating the use of ADP and ATP analogues that carried a fluorescent methylanthraniloyl (mant) group attached to the 2'- or 3'-hydroxy group of the ribose moiety. Due to the bulkiness of the mant group and a critical role of these hydroxy groups in MipZ dimerization, the modified nucleotides are predicted to block dimer formation, consistent with their failure to be hydrolyzed by MipZ or mediate MipZ self-association in the SPR assay (data not shown). This circumstance allowed us to focus the measurements on the initial nucleotide binding step without interference from subsequent reactions.
(§6) Interaction of the mant group with the protein surface led to a marked increase in fluorescence (panel A). Consistent with the easy accessibility of the nucleotide-binding site and the lack of major conformational changes, the transients recorded after rapid mixing of MipZ with mant nucleotides could be fitted to single-exponential equations, indicating single-step binding reactions.
(§7) Shown is a typical curve representing the change in mant fluorescence upon binding of mant-ATP (30 µM) to MipZ (1 µM).
(§8) Fitting of the data yielded a pseudo-first order rate constant (kobs) of 4.7 s-1.
(§9) (C) Determination of the second-order association rate constants (kon). The pseudo-first order rate constants for the association of […]
(§10) determining the second-order rate constant of the association reaction. Shown is a representative graph in which the kobs values measured for mant-ATP were plotted against the corresponding mant-ATP concentrations. Fitting of the data to the linear function kobs=kon[mant-ATP]+koff yielded a value of 6.8 x 104 M-1s-1 for kon.
(§11) (D) Dissociation of mant nucleotides from MipZ. In order to determine the dissociation rate constants (koff), we monitored the displacement of mant-labeled nucleotides from MipZ by an excess of unlabeled nucleotide. All transients obtained could be fitted to single-exponential functions. Shown is a typical curve representing the change in mant fluorescence upon dissociation of mant-ATP (30 µM) from MipZ (1 µM) in the presence of 2 mM ATP. […]
(§12) […]
(§13) (Murshudov et al. 1997) for apo-MipZ in crystal form 2. Transient kinetic analysis The structure of apo-MipZ in crystal form 1 was solved Transient kinetic experiments were conducted at 30°C by multiple-wavelength anomalous diffraction (MAD), in a Hi-Tech Scientific SF-61MX stopped-flow spectro- […]

MipZ K13A = test: Transient kinetic analysis of mant nucleotide binding to MipZ K13A; parameters: species or system Caulobacter crescentus; details: for Kd: calculated KD = koff/kon
From the text: as §1, §2, §3, §4, §5, §6, §7, §8, §9, §10, §11, §12, §13

MipZ-D42A [2] = test: Transient kinetic analysis of mant nucleotide binding to MipZ D42A; parameters: species or system Caulobacter crescentus; details: for Kd: calculated KD = koff/kon
From the text: as §1, §2, §3, §4, §5, §6, §7, §8, §9, §10, §11, §12, §13

MipZ G14V = test: Transient kinetic analysis of mant nucleotide binding to MipZ G14V; parameters: species or system Caulobacter crescentus; details: for Kd: calculated KD = koff/kon
From the text: as §1, §2, §3, §4, §5, §6, §7, §8, §9, §10, §11, §12, §13

MipZ-K18Q = test: Transient kinetic analysis of mant nucleotide binding to MipZ K18Q; parameters: species or system Caulobacter crescentus
From the text: as §1, §2, §3
(B) Association of MipZ with mant nucleotides. […]
as §6
Shown is a typical curve representing the change in mant fluorescence upon binding of mant-ATP (30 µM) to MipZ (1 µM). […]
determining the second-order rate constant of the association reaction. Shown is a representative graph in which the kobs values measured for mant-ATP were plotted against the corresponding mant-ATP concentrations. […]
as §11, with “All transients obtained could be fitted to single-exponential functions.” left out

MipZ-D42A [3] = target: T1, MipZ-D42A (Caulobacter crescentus, UniProt Q9A6C9 1-278, D42A); test: SPR; ATP; SPR: buffer P2 or buffer BC (Mg2+-containing) with 2 mM nucleotide, composition not in material; EMSA: 1.25 mM nucleotide, 270 nM-5.6 uM protein, room temperature; details: protein: recombinant; chain copies: 2; label: biotin; blunt
T1 sequence: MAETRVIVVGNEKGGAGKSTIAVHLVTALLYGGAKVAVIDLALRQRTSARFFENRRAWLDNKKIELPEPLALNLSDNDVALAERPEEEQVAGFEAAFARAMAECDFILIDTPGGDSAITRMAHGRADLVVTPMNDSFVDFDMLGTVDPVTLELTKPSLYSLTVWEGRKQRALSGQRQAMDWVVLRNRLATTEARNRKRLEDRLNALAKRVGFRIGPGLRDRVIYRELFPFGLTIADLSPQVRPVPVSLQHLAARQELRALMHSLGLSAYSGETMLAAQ

MipZ [4] = target: T2, MipZ (Caulobacter crescentus, UniProt Q9A6C9 1-278); test: as above; details: protein: recombinant; chain copies: 2; label: biotin; blunt
T2 sequence: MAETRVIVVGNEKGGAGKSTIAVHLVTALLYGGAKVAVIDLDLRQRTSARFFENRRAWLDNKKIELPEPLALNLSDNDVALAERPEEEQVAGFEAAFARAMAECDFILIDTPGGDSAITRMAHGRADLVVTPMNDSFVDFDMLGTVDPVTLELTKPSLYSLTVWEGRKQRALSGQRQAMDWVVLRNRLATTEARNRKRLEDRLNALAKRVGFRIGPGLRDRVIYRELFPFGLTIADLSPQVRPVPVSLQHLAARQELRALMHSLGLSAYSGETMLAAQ

[5] = target: the molecule itself; test: SPR; ATP; printed as 0.83 min-1
[6] = target: the molecule itself; test: SPR; 1 mM ATPγS (printed 0.18 min-1)
[7] = target: the molecule itself; test: SPR; 1 mM ATP (printed 0.83 min-1)
[8] = target: the molecule itself; test: SPR; ATP; printed as 0.067 min-1
[9] = target: the molecule itself; test: SPR; 1 mM ATP (printed 0.067 min-1)
ParB = target: T3, ParB (Caulobacter crescentus, UniProt B8GW30 1-304); test: SPR; ParB alone; SPR: buffer P2 or buffer BC (Mg2+-containing) with 2 mM nucleotide, composition not in material; EMSA: 1.25 mM nucleotide, 270 nM-5.6 uM protein, room temperature; details: protein: recombinant; tags: none (native ParB); chain copies: 2; label: biotin (immobilized); blunt
T3 sequence: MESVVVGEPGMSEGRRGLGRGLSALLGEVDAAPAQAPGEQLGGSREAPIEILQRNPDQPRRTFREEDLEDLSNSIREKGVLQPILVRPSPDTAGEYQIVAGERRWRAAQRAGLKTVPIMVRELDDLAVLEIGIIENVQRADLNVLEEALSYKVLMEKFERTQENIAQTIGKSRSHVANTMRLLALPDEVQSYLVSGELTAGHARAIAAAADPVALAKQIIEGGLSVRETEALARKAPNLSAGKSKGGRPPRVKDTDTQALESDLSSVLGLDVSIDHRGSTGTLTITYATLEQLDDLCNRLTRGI

MipZ [10] = target: T2, MipZ; test: SPR; 2 mM ATP, Mg2+; koff 1.5 min-1 (Fig S5C); SPR: buffer P2 or buffer BC (Mg2+-containing) with 2 mM nucleotide, composition not in material; EMSA: 1.25 mM nucleotide, 270 nM-5.6 uM protein, room temperature; details: protein: recombinant; chain copies: 2; label: biotin (immobilized); blunt
MipZ-D42A [11] = target: T1, MipZ-D42A; test: SPR; ATP; slower dissociation than WT; SPR: buffer P2 or buffer BC (Mg2+-containing) with 2 mM nucleotide, composition not in material; EMSA: 1.25 mM nucleotide, 270 nM-5.6 uM protein, room temperature; details: protein: recombinant; chain copies: 2; label: biotin (immobilized); blunt

CNc1ccccc1C(=O)O[C@H]1[C@@H](O)[C@H](n2cnc3c(N)ncnc32)O[C@@H]1COP(=O)(O)OP(=O)(O)O [mant-ADP]
average lifetime (τ = 1/koff) of the MipZ⋅nucleotide complex (MipZ [1]; WT MipZ): about 0.3 s
kon (MipZ [1]; WT MipZ): 118000 M⁻¹ s⁻¹
Kd (MipZ [1]; WT MipZ): 26 µM
koff (MipZ [1]; WT MipZ): 3.1 s⁻¹
koff (MipZ K13A): 3.5 s⁻¹
kon (MipZ K13A): 86000 M⁻¹ s⁻¹
Kd (MipZ K13A): 41 µM
koff (MipZ-D42A [2]): 3.8 s⁻¹
kon (MipZ-D42A [2]): 55000 M⁻¹ s⁻¹
Kd (MipZ-D42A [2]): 69 µM
koff (MipZ G14V): 0.9 s⁻¹
kon (MipZ G14V): 205000 M⁻¹ s⁻¹
Kd (MipZ G14V): 4.5 µM

CNc1ccccc1C(=O)O[C@H]1[C@@H](O)[C@H](n2cnc3c(N)ncnc32)O[C@@H]1COP(=O)(O)OP(=O)(O)OP(=O)(O)O [mant-ATP]
kon (MipZ [1]; WT MipZ): 68000 M⁻¹ s⁻¹
Kd (MipZ [1]; WT MipZ): 31 µM
koff (MipZ [1]; WT MipZ): 2.1 s⁻¹
pseudo-first order rate constant (kobs) (MipZ [1]; mant-ATP 30 µM, MipZ 1 µM): 4.7 s⁻¹
koff (MipZ K13A): 2.1 s⁻¹
kon (MipZ K13A): 56000 M⁻¹ s⁻¹
Kd (MipZ K13A): 38 µM
koff (MipZ-D42A [2]): 4.5 s⁻¹
kon (MipZ-D42A [2]): 78000 M⁻¹ s⁻¹
Kd (MipZ-D42A [2]): 58 µM
koff (MipZ-K18Q): 7.5 s⁻¹
kon (MipZ-K18Q): 62000 M⁻¹ s⁻¹
Kd (MipZ-K18Q; calculated KD = koff/kon): 121 µM
koff (MipZ G14V): 0.2 s⁻¹
kon (MipZ G14V): 157000 M⁻¹ s⁻¹
Kd (MipZ G14V): 1.3 µM

B1: parSmt (dsDNA)
DNA 1: GAGGCTTGTTTGAGCTCAAACATCGG
DNA 2: CCGATGTTTGAGCTCAAACAAGCCTC
binding result (MipZ-D42A [3]): binds
binding result (MipZ [4]): binds

B2: parSWT (dsDNA)
DNA 1: GAGGCTTGTTTCACGTGAAACATCGG
DNA 2: CCGATGTTTCACGTGAAACAAGCCTC
binding result (MipZ-D42A [3]): binds
binding result (MipZ [4]): binds

B3: MipZ (wild type), hexahistidine-tagged (natural protein)
chain: MAETRVIVVGNEKGGAGKSTIAVHLVTALLYGGAKVAVIDLDLRQRTSARFFENRRAWLDNKKIELPEPLALNLSDNDVALAERPEEEQVAGFEAAFARAMAECDFILIDTPGGDSAITRMAHGRADLVVTPMNDSFVDFDMLGTVDPVTLELTKPSLYSLTVWEGRKQRALSGQRQAMDWVVLRNRLATTEARNRKRLEDRLNALAKRVGFRIGPGLRDRVIYRELFPFGLTIADLSPQVRPVPVSLQHLAARQELRALMHSLGLSAYSGETMLAAQ
koff [5]: 0.0138 s⁻¹
koff [6]: 0.003 s⁻¹
koff [7]: 0.0138 s⁻¹

B4: MipZ-D42A, hexahistidine-tagged (natural protein)
chain: MAETRVIVVGNEKGGAGKSTIAVHLVTALLYGGAKVAVIDLALRQRTSARFFENRRAWLDNKKIELPEPLALNLSDNDVALAERPEEEQVAGFEAAFARAMAECDFILIDTPGGDSAITRMAHGRADLVVTPMNDSFVDFDMLGTVDPVTLELTKPSLYSLTVWEGRKQRALSGQRQAMDWVVLRNRLATTEARNRKRLEDRLNALAKRVGFRIGPGLRDRVIYRELFPFGLTIADLSPQVRPVPVSLQHLAARQELRALMHSLGLSAYSGETMLAAQ
koff [8]: 0.00112 s⁻¹
koff [9]: 0.00112 s⁻¹

B5: ran1 (dsDNA)
DNA 1: GAGGCAGACTAGATCTTCTAGTTCGG
DNA 2: CCGAACTAGAAGATCTAGTCTGCCTC
binding result (MipZ-D42A [3]): binds
binding result (MipZ [4]): binds

B6: ran2 (dsDNA)
DNA 1: GTCGACAGAGTTCGCTAACATCGAGC
DNA 2: GCTCGATGTTAGCGAACTCTGTCGAC
binding result (ParB): no binding
binding result (MipZ [10]): binds
binding result (MipZ-D42A [11]): binds
